The record followed here is patent publication US20260035387A1 (BIOGEN MA INC., priority 2022, published 2026).

Structures are written as SMILES. Some results are limits rather than exact numbers.

This assay relates to mutant Huntington (HTT) protein. The experiment in a line: HTT Mutant HTRF iPSC assay (mHTT protein lowering). The following applies: human iPSC derived from a HTT patient with a poly-Q49 mutation. The format is cell-based. (Time-resolved FRET reads energy transfer from a long-lived donor to a nearby acceptor.)

One may read the IC50 as the concentration needed to halve the response being measured. A low value points to greater potency in that assay.

For the molecule `Cc1cn2cc(NC(=O)c3cc4ccc(OC5CCC6(CCN(C)CC6)C5)nc4s3)cc(F)c2n1` (stereo not shown) [Compound 160, N-(8-fluoro-2-methylimidazo[1,2-a]pyridin-6-yl)-6-((8-methyl-8-azaspiro[4.5]decan-2-yl)oxy)thieno[2,3-b]pyridine-2-carboxamide], the IC50 was 100 to 1000 nM.
`COc1c(NC(=O)c2nc3ccc(N4CCC5(CN(C)C5)C4)nc3s2)cn2cc(C)nc2c1F` [Compound 114, N-(8-fluoro-7-methoxy-2-methylimidazo[1,2-a]pyridin-6-yl)-5-(2-methyl-2,6-diazaspiro[3.4]octan-6-yl)thiazolo[5,4-b]pyridine-2-carboxamide] gave an IC50 of less than 100 nM.
The figure for `COc1cc2nn(C)cc2cc1NC(=O)c1cc2ccc(N3CC[C@@H](N(C)C)C3)nc2s1` (single isomer, unassigned) [Compound 241] is less than 100 nM; for `COc1c(NC(=O)c2cc3ccc(N4CCC5(CCCN5C)C4)nc3s2)cc2cn(C)nc2c1F` (racemic) [Compound 231, N-(7-fluoro-6-methoxy-2-methyl-2H-indazol-5-yl)-6-(1-methyl-1,7-diazaspiro[4.4]nonan-7-yl)thieno[2,3-b]pyridine-2-carboxamide] it is less than 100 nM; for `Cc1cn2cc(NC(=O)c3cc4ccc(N(C)C5CN6CCC5CC6)nc4s3)ccc2n1` (stereo not shown) [Compound 38, 6-(methyl(quinuclidin-3-yl)amino)-N-(2-methylimidazo[1,2-a]pyridin-6-yl)thieno[2,3-b]pyridine-2-carboxamide] it is 100 to 1000 nM.
The result for `Cc1cn2cc(NC(=O)c3cc4ccc(N5CCC6(CCCN6C)C5)nc4s3)nc(C)c2n1` (stereo not shown) [Compound 208, N-(2,8-dimethylimidazo[1,2-a]pyrazin-6-yl)-6-(1-methyl-1,7-diazaspiro[4.4]nonan-7-yl)thieno[2,3-b]pyridine-2-carboxamide] reads less than 100 nM; that for `COc1cc2nc(C)cn2cc1NC(=O)c1cc2ccc(N3CC[C@]4(CCCN4C)C3)nc2s1` (single isomer, unassigned) [Compound 251], 100 to 1000 nM; that for `CCN1CCN(c2ccc3cc(C(=O)Nc4cc5cc(C)nn5cc4OC)sc3n2)CC1` [Compound 183, 6-(4-ethylpiperazin-1-yl)-N-(6-methoxy-2-methylpyrazolo[1,5-a]pyridin-5-yl)thieno[2,3-b]pyridine-2-carboxamide], less than 100 nM.
The figure for `Cc1cn2cc(NC(=O)c3cc4ccc(NC5CCN6CCCC6C5)nc4s3)ccc2n1` (stereo not shown) [Compound 14, N-(2-methylimidazo[1,2-a]pyridin-6-yl)-6-((octahydroindolizin-7-yl)amino)thieno[2,3-b]pyridine-2-carboxamide] is 100 to 1000 nM; for `Cc1cn2cc(NC(=O)c3cc4ncc(C5CC6CCC(C5)N6)nc4s3)cc(F)c2n1` (stereo not shown) [Compound 142, 3-(8-azabicyclo[3.2.1]octan-3-yl)-N-(8-fluoro-2-methylimidazo[1,2-a]pyridin-6-yl)thieno[2,3-b]pyrazine-6-carboxamide] it is 100 to 1000 nM; for `CCN[C@H]1CCN(c2ccc3cc(C(=O)Nc4cc(F)c5nc(C)cn5c4)sc3n2)C1` (stereo in doubt) [Compound 67, 6-[(3S)-3-(ethylamino)pyrrolidin-1-yl]-N-(8-fluoro-2-methyl-imidazo[1,2-a]pyridin-6-yl)thieno[2,3-b]pyridine-2-carboxamide] it is less than 100 nM.
`CC(C)n1ncc2ccc(NC(=O)c3cc4ccc(N5CCC(N(C)C)C5)nc4s3)cc21` (stereo not shown) [Compound 61, 6-(3-(dimethylamino)pyrrolidin-1-yl)-N-(1-isopropyl-1H-indazol-6-yl)thieno[2,3-b]pyridine-2-carboxamide] came in with an IC50 of 1000 to 9000 nM.
The figure for `Cc1cn2cc(NC(=O)c3cc4nc(N5CCNCC5)ccc4o3)cc(F)c2n1` [Compound 169, N-(8-fluoro-2-methylimidazo[1,2-a]pyridin-6-yl)-5-(piperazin-1-yl)furo[3,2-b]pyridine-2-carboxamide] is less than 100 nM; for `Cc1cn2cc(NC(=O)c3cc4ccc(N5CCC(N6CC7(CC7)C6)C5)nc4s3)cc(F)c2n1` (stereo not shown) [Compound 207, 6-(3-(5-azaspiro[2.3]hexan-5-yl)pyrrolidin-1-yl)-N-(8-fluoro-2-methylimidazo[1,2-a]pyridin-6-yl)thieno[2,3-b]pyridine-2-carboxamide] it is less than 100 nM.
Molecule `COc1cc2nn(C)cc2cc1NC(=O)c1cc2ccc(C3CCN(C)C3)nc2s1` (single isomer, unassigned) [Compound 177] returned an IC50 of less than 100 nM.
The figure for `Cc1cn2cc(NC(=O)c3cc4ccc(N5CCC56CCNC6)nc4s3)cc(F)c2n1` (stereo not shown) [Compound 209, N-(8-fluoro-2-methylimidazo[1,2-a]pyridin-6-yl)-6-(1,6-diazaspiro[3.4]octan-1-yl)thieno[2,3-b]pyridine-2-carboxamide] is less than 100 nM; for `Cc1cn2cc(NC(=O)c3cc4ccc(N5C[C@H]6C[C@@H]5CN6C(C)C)nc4s3)ccc2n1` (stereo in doubt) [Compound 34, 6-((1R,4R)-5-isopropyl-2,5-diazabicyclo[2.2.1]heptan-2-yl)-N-(2-methylimidazo[1,2-a]pyridin-6-yl)thieno[2,3-b]pyridine-2-carboxamide] it is less than 100 nM.
`Cc1cn2cc(NC(=O)c3cc4ncc(C5CCNCC5)nc4s3)cc(F)c2n1` [Compound 148, N-(8-fluoro-2-methyl-imidazo[1,2-a]pyridin-6-yl)-3-(4-piperidyl)thieno[2,3-b]pyrazine-6-carboxamide] gave an IC50 of less than 100 nM.
The result for `CNC1CN(c2ccc3cc(C(=O)Nc4cc(F)c5nc(C)cn5c4)sc3n2)C1` [Compound 197, N-(8-fluoro-2-methylimidazo[1,2-a]pyridin-6-yl)-6-(3-(methylamino)azetidin-1-yl)thieno[2,3-b]pyridine-2-carboxamide] reads less than 100 nM; that for `COc1cc2nn(C)cc2cc1NC(=O)c1cc2ccc(N3CC(N4CCC4)C3)nc2s1` [Compound 232, 6-([1,3′-biazetidin]-1′-yl)-N-(6-methoxy-2-methyl-2H-indazol-5-yl)thieno[2,3-b]pyridine-2-carboxamide], less than 100 nM.
`Cc1cn2cc(NC(=O)c3cc4ccc(N5C[C@@H](C)N(C)[C@@H](C)C5)nc4s3)ccc2n1` [Compound 18, N-(2-methylimidazo[1,2-a]pyridin-6-yl)-6-((3R,5S)-3,4,5-trimethylpiperazin-1-yl)thieno[2,3-b]pyridine-2-carboxamide] displayed an IC50 of less than 100 nM.
The figure for `COc1c(NC(=O)c2cc3ccc(C4CCN(C)CC4)nc3s2)cc2cn(C)nc2c1F` [Compound 249, N-(7-fluoro-6-methoxy-2-methyl-2H-indazol-5-yl)-6-(1-methylpiperidin-4-yl)thieno[2,3-b]pyridine-2-carboxamide] is less than 100 nM; for `Cc1cn2cc(NC(=O)c3nc4ccc(C5CCNCC5)nc4s3)cc(F)c2n1` [Compound 129, N-(8-fluoro-2-methylimidazo[1,2-a]pyridin-6-yl)-5-(piperidin-4-yl)thiazolo[5,4-b]pyridine-2-carboxamide] it is less than 100 nM; for `Cc1cn2cc(NC(=O)c3cc4ccc(N5C[C@@H]6CNC[C@@H]65)nc4s3)cc(F)c2n1` [Compound 196, 6-((1S,5R)-3,6-diazabicyclo[3.2.0]heptan-6-yl)-N-(8-fluoro-2-methylimidazo[1,2-a]pyridin-6-yl)thieno[2,3-b]pyridine-2-carboxamide] it is less than 100 nM.
`Cc1cn2cc(NC(=O)c3cc4ccc(N(C)CCN(C)C)nc4s3)ccc2n1` [Compound 23, 6-((2-(dimethylamino)ethyl)(methyl)amino)-N-(2-methylimidazo[1,2-a]pyridin-6-yl)thieno[2,3-b]pyridine-2-carboxamide]: the IC50 was 100 to 1000 nM.
Take `CCN1CCN(c2ccc3nc(C(=O)Nc4cc5cn(C)nc5cc4OC)sc3n2)CC1` [Compound 118, 5-(4-ethylpiperazin-1-yl)-N-(6-methoxy-2-methyl-2H-indazol-5-yl)thiazolo[5,4-b]pyridine-2-carboxamide]: the IC50 lay in the range of 100 to 1000 nM.
The figure for `COc1cc2nn(C)cc2cc1NC(=O)c1cc2ccc(N3CC[C@]4(CCCN4C)C3)nc2s1` (single isomer, unassigned) [Compound 222] is less than 100 nM; for `Cc1cn2cc(NC(=O)c3nc4ccc(N5CC[C@@H](N6CCC6)C5)nc4s3)cc(F)c2n1` (stereo in doubt) [Compound 92, (rel-(R)-5-(3-(azetidin-1-yl)pyrrolidin-1-yl)-N-(8-fluoro-2-methylimidazo[1,2-a]pyridin-6-yl)thiazolo[5,4-b]pyridine-2-carboxamide] it is less than 100 nM.
The result for `Cc1cn2cc(NC(=O)c3cc4ccc(N5CCC(N6CCCC6)C5)nc4s3)ccc2n1` (stereo not shown) [Compound 19, 6-([1,3′-bipyrrolidin]-1′-yl)-N-(2-methylimidazo[1,2-a]pyridin-6-yl)thieno[2,3-b]pyridine-2-carboxamide] reads 100 to 1000 nM.
The figure for `Cc1cn2cc(NC(=O)c3nc4ccc(N5CCC6(CCN6)C5)nc4s3)cc(F)c2n1` (single isomer, unassigned) [Compound 97] is less than 100 nM; for `CCN1CCN(c2ccc3oc(C(=O)Nc4cc5cc(C)nn5cc4OC)cc3n2)CC1` [Compound 259, 5-(4-ethylpiperazin-1-yl)-N-(6-methoxy-2-methylpyrazolo[1,5-a]pyridin-5-yl)furo[3,2-b]pyridine-2-carboxamide] it is 100 to 1000 nM; for `CCN1CCC(Oc2ccc3cc(C(=O)Nc4cc(F)c5nc(C)cn5c4)sc3n2)C1` (racemic) [Compound 161, 6-((1-ethylpyrrolidin-3-yl)oxy)-N-(8-fluoro-2-methylimidazo[1,2-a]pyridin-6-yl)thieno[2,3-b]pyridine-2-carboxamide] it is less than 100 nM.
For `Cc1cn2cc(NC(=O)c3cc4ccc(N5CCC(N(C)C)CC5)nc4s3)ccc2n1` [Compound 11, 6-(4-(dimethylamino)piperidin-1-yl)-N-(2-methylimidazo[1,2-a]pyridin-6-yl)thieno[2,3-b]pyridine-2-carboxamide], the IC50 lay in the range of 100 to 1000 nM.
The figure for `Cc1cn2cc(NC(=O)c3cc4nc(N5CC[C@H](N(C)C)C5)ccc4o3)cc(F)c2n1` [Compound 8, 5-[(3S)-3-(dimethylamino)pyrrolidin-1-yl]-N-(8-fluoro-2-methyl-imidazo[1,2-a]pyridin-6-yl)furo[3,2-b]pyridine-2-carboxamide] is 1000 to 9000 nM.
